Data as given in patent US11332485B2, “Penicillin-binding protein inhibitors” (priority 2017, dated 2022).
Where two headings read alike, the source gives them in different places.

What was measured:
S. aureus ATCC 29213 = test: Broth microdilution MIC assay; type: cell-based; settings: Staphylococcus aureus
Procedure: (§1) To determine the ability of test compounds to potentiate the inhibition of the growth of bacterial strains, classic cell based broth microdilution MIC assays were employed. MIC assays are performed according to CLSI methods except where otherwise noted (CLSI, 2011 and CLSI, 2009). The reference strain S. aureus ATCC 29213 and the hyper-permeable E. coli 901C were used to determine the ability of the PBP compounds to inhibit bacterial growth. Briefly, cryo-preserved bacterial cultures of clinical strains are streaked for isolation on appropriate agar medium, in this case Mueller Hinton II agar. Following incubation to allow formation of colonies these plates are sealed with parafilm and stored refrigerated for up to two weeks. For preparation of assay inocula and to ensure low variability, at least 5 colonies are picked from the agar plates with an inoculating loop and aseptically transferred to a culture tube containing 3 mL of Mueller-Hinton Broth (supplemented with divalent cations to required levels based on Manufacturers' certification). The broth culture is grown for 3-5 hours at 37° C. with shaking at 200 rpm. Meanwhile, 2-fold serial dilutions of test compounds are conducted in a 96 well plate with a final volume of 75 μL per well at 2-fold the final desired concentration. After the dilution plates are set up the growing cultures are then diluted in a cuvette containing MH II broth and the optical density is measured at 600 nm. Inocula are diluted such that 75 μL of this culture in Mueller-Hinton Broth results in a starting bacterial concentration of 5×10^5 CFU/mL when added to the dilution plates. The plates are incubated 16-20 hours at 37° C. The MIC is read visually as the lowest concentration well with no bacterial growth.

[1] = test system: hyper-permeable E. coli 901C; test: Broth microdilution MIC assay; type: cell-based; settings: Escherichia coli, read-out: E. coli 901C MIC
Procedure: as §1

[2] = biological target: T1, PBP3 from Escherichia coli (Escherichia coli, UniProt P0AD68); test: Fluorescence polarization competition binding assay with Bocillin-FL
T1 construct: made in house
T1 sequence (P0AD68 1-577): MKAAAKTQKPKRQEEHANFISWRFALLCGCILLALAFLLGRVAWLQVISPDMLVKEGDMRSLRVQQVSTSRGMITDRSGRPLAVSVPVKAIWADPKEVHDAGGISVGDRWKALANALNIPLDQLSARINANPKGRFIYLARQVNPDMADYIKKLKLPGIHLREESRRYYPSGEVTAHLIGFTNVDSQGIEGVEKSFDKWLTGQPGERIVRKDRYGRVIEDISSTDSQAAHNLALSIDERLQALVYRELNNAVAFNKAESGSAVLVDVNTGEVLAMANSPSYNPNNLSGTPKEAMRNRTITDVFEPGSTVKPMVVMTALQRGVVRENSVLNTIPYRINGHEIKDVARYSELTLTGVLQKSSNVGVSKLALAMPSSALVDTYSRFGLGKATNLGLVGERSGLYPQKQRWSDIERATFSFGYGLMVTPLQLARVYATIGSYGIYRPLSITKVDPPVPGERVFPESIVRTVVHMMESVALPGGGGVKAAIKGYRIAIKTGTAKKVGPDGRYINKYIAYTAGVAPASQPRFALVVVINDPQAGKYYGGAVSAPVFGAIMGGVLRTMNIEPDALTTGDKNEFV
Description: To determine the ability of boronic acid-based test PBP inhibitors to bind Penicillin Binding Proteins (PBPs), Bocillin-FL (fluorescently-labeled penicillin V; ThermoFisher Scientific) was used in a fluorescence polarization (FP) competition binding assay to assess boronic acid PBP inhibitor binding to PBP3 from Escherichia coli. PBP3 from Escherichia coli was cloned and purified as described previously (King, D. T, et al., ACS Infectious Diseases 2015, 1, 175-184). To establish assay conditions for competition binding, an enzyme titration/saturation binding experiment was performed. Bocillin-FL was prepared at […] in a buffer comprised of 50 mM Hepes (pH 8.0), 300 mM NaCl and 5% (v/v) glycerol. Saturation binding was performed by mixing […] of PBP3 ranging in concentrations from […] with 40 μl of the 0.2 μM Bocillin-FL solution, in individual wells of a black 384-well microplate. FP was measured immediately upon addition of PBP3 (Ex, Em), using a Cytation3 (BioTek) microplate reader and measured continuously for 60 minutes. […] The competition binding assay was validated using the beta-lactam ampicillin, with Bocillin-FL at a final concentration of 0.1 μM, PBP3 at a final concentration of 1.5 μM and concentrations of ampicillin from 0-1000 μM. PBP3 was incubated with ampicillin at different concentrations in a black 384-well microplate (Corning) for 30 minutes, then Bocillin-FL added and the FP immediately measured for 60 minutes. […] Binding assays for boronic acid PBP inhibitors were performed in an identical fashion. Representative results are shown in Table 3, where A represents a potency of >500 μM, B represents a potency between 30 μM and 500 μM inclusive, and C represents a potency of <30 μM. NT=Not Tested.

[3] = test system: E. coli DH5α/pLBII-CTX-M15; test: Broth microdilution MIC assay, engineered strain producing CTX-M15; type: cell-based, Escherichia coli; settings: Escherichia coli, read-out: E. coli DH5α/pLBII-CTX-M15 Microbiological Activity (MIC)
Procedure: as §1
(§2) To determine if test compounds were affected by CTX-M15, the most abundant extended spectrum β-lactamase in clinical settings worldwide, the inhibition of the growth of an engineered strain of Escherichia coli harboring CTX-M15 was tested. This strain was constructed by cloning the gene encoding CTX-M15 into the NdeI and BamHI restriction endonuclease sites of plasmid pLBII, placing the gene(s) under the control of the Lac promoter. The constructed expression plasmid for CTX-M15 was used to transform competent E. coli DH5a cells to make the engineered strain, including an empty pLBII vector control strain. The classic cell based broth microdilution MIC assay was employed as described above with the addition of control antibiotics, known to be degraded by β-lactamases (Ceftazidime, piperacillin and piperacillin+tazobactam).

E. coli DH5α/pLBII = test: Broth microdilution MIC assay, empty vector control strain; type: cell-based; settings: Escherichia coli, read-out: E. coli DH5α/pLBII Microbiological Activity (MIC)
Procedure: as §1, §2

[4] = ATCC29213, broth microdilution, 16-20 hours at 37° C., read-out: S. aureus 29213 MIC

Compound | MIC (S. aureus ATCC 29213; [4]) [µg/mL] | MIC [1] [µg/mL] | EC50 [2] [µM] | MIC [3] [µg/mL] | MIC (E. coli DH5α/pLBII) [µg/mL] | MIC (S. aureus ATCC 29213; ATCC29213, read-out: S. aureus 29213 MIC) [µg/mL]
CCN1CCN(C(=O)NCCN2CCN(C(=O)NC(C(=O)N[C@H]3Cc4cccc(C(=O)O)c4OB3O)c3csc(N)n3)C(=O)C2=O)C(=O)C1=O (stereo partly drawn) [Example 92, (3R)-3-(2-(2-aminothiazol-4-yl)-2-(4-(2-(4-ethyl-2,3-dioxopiperazine-1-carboxamido)ethyl)-2,3-dioxopiperazine-1-carboxamido)acetamido)-2-hydroxy-3,4-dihydro-2H-benzo[e][1,2]oxaborinine-8-carboxylic acid] | > 128 | < 64 | 30 to 500 | 128 to 256 | – | –
Nc1nc(C(NS(=O)(=O)c2cccnc2)C(=O)N[C@H]2Cc3cccc(C(=O)O)c3OB2O)cs1 (stereo partly drawn) [Example 27, (3R)-3-(2-(2-aminothiazol-4-yl)-2-(pyridine-3-sulfonamido)acetamido)-2-hydroxy-3,4-dihydro-2H-benzo[e][1,2]oxaborinine-8-carboxylic acid] | > 128 | < 64 | – | 128 to 256 | 128 to 256 | –
CCNC(=O)NC(C(=O)N[C@H]1Cc2cccc(C(=O)O)c2OB1O)c1csc(N)n1 (stereo partly drawn) [Example 25, (3R)-3-(2-(2-aminothiazol-4-yl)-2-(3-ethylureido)acetamido)-2-hydroxy-3,4-dihydro-2H-benzo[e][1,2]oxaborinine-8-carboxylic acid] | > 128 | < 64 | – | 32 to 64 | 32 to 64 | –
N[C@@H](C(=O)N[C@H]1Cc2cccc(C(=O)O)c2OB1O)c1ccc(O)cc1 [Example 6, (R)-3-((R)-2-amino-2-(4-hydroxyphenyl)acetamido)-2-hydroxy-3,4-dihydro-2H-benzo[e][1,2]oxaborinine-8-carboxylic acid] | > 128 | > 128 | – | > 512 | > 512 | –
N[C@H](C(=O)N[C@H]1Cc2cccc(C(=O)O)c2OB1O)c1ccc(O)cc1 [Example 7, (R)-3-((S)-2-amino-2-(4-hydroxyphenyl)acetamido)-2-hydroxy-3,4-dihydro-2H-benzo[e][1,2]oxaborinine-8-carboxylic acid] | 64 to 128 | > 128 | – | 128 to 256 | 128 to 256 | –
Nc1nc([C@@H](N)C(=O)N[C@H]2Cc3cccc(C(=O)O)c3OB2O)cs1 [Example 8, (R)-3-((R)-2-amino-2-(2-aminothiazol-4-yl)acetamido)-2-hydroxy-3,4-dihydro-2H-benzo[e][1,2]oxaborinine-8-carboxylic acid] | > 128 | > 128 | – | > 512 | > 512 | –
CCCN1CCN(C(=O)NC(C(=O)N[C@H]2Cc3cccc(C(=O)O)c3OB2O)c2csc(NC(=O)OCc3ccccc3)n2)C(=O)C1=O (stereo partly drawn) [Example 56, (3R)-3-(2-(2-(((benzyloxy)carbonyl)amino)thiazol-4-yl)-2-(2,3-dioxo-4-propylpiperazine-1-carboxamido)acetamido)-2-hydroxy-3,4-dihydro-2H-benzo[e][1,2]oxaborinine-8-carboxylic acid] | 64 to 128 | < 64 | – | > 512 | > 512 | –
Nc1nc(C(NC(=O)N2CCCN(O)S2(=O)=O)C(=O)N[C@H]2Cc3cccc(C(=O)O)c3OB2O)cs1 (stereo partly drawn) [Example 77, (3R)-3-(2-(2-aminothiazol-4-yl)-2-(6-hydroxy-1,1-dioxido-1,2,6-thiadiazinane-2-carboxamido)acetamido)-2-hydroxy-3,4-dihydro-2H-benzo[e][1,2]oxaborinine-8-carboxylic acid] | – | < 64 | – | 32 to 64 | 32 to 64 | > 128
Nc1nc(C(NC(=O)N2CCN(CC(F)F)C(=O)C2=O)C(=O)N[C@H]2Cc3cccc(C(=O)O)c3OB2O)cs1 (stereo partly drawn) [Example 69, (3R)-3-(2-(2-aminothiazol-4-yl)-2-(4-(2,2-difluoroethyl)-2,3-dioxopiperazine-1-carboxamido)acetamido)-2-hydroxy-3,4-dihydro-2H-benzo[e][1,2]oxaborinine-8-carboxylic acid] | 64 to 128 | < 64 | – | 8 to 16 | 8 to 16 | –
CCN1CCN(C(=O)NC(C(=O)N[C@H]2Cc3cccc(C(=O)O)c3OB2O)c2csc(NCCN)n2)C(=O)C1=O (stereo partly drawn) [Example 63, (3R)-3-(2-(2-((2-aminoethyl)amino)thiazol-4-yl)-2-(4-ethyl-2,3-dioxopiperazine-1-carboxamido)acetamido)-2-hydroxy-3,4-dihydro-2H-benzo[e][1,2]oxaborinine-8-carboxylic acid] | 64 to 128 | < 64 | 30 to 500 | – | – | –
CCN1CCN(C(=O)N[C@H](Cc2c[nH]cn2)C(=O)N[C@H]2Cc3cccc(C(=O)O)c3OB2O)C(=O)C1=O [Example 40, (R)-3-((R)-2-(4-ethyl-2,3-dioxopiperazine-1-carboxamido)-3-(1H-imidazol-4-yl)propanamido)-2-hydroxy-3,4-dihydro-2H-benzo[e][1,2]oxaborinine-8-carboxylic acid] | > 128 | 64 to 128 | – | 128 to 256 | 128 to 256 | –
Cn1ccc(C(=O)NC(C(=O)N[C@H]2Cc3cccc(C(=O)O)c3OB2O)c2csc(N)n2)cc1=O (stereo partly drawn) [Example 42, (3R)-3-(2-(2-aminothiazol-4-yl)-2-(1-methyl-2-oxo-1,2-dihydropyridine-4-carboxamido)acetamido)-2-hydroxy-3,4-dihydro-2H-benzo[e][1,2]oxaborinine-8-carboxylic acid] | 64 to 128 | < 64 | – | 32 to 64 | 32 to 64 | –
N[C@H](Cc1ccccc1)C(=O)N[C@H]1Cc2cccc(C(=O)O)c2OB1O [Example 1, (R)-3-((R)-2-amino-3-phenylpropanamido)-2-hydroxy-3,4-dihydro-2H-benzo[e][1,2]oxaborinine-8-carboxylic acid] | > 128 | > 128 | – | > 512 | > 512 | –
Nc1nc(C(NC(=O)N2CCN(CCCF)C(=O)C2=O)C(=O)N[C@H]2Cc3cccc(C(=O)O)c3OB2O)cs1 (stereo partly drawn) [Example 54, (3R)-3-(2-(2-aminothiazol-4-yl)-2-(4-(3-fluoropropyl)-2,3-dioxopiperazine-1-carboxamido)acetamido)-2-hydroxy-3,4-dihydro-2H-benzo[e][1,2]oxaborinine-8-carboxylic acid] | 64 to 128 | < 64 | – | 8 to 16 | 8 to 16 | –
Nc1nc(C(NC(=O)CO)C(=O)N[C@H]2Cc3cccc(C(=O)O)c3OB2O)cs1 (stereo partly drawn) [Example 29, (3R)-3-(2-(2-aminothiazol-4-yl)-2-(2-hydroxyacetamido)acetamido)-2-hydroxy-3,4-dihydro-2H-benzo[e][1,2]oxaborinine-8-carboxylic acid] | > 128 | < 64 | – | 32 to 64 | 32 to 64 | –
